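96-well plates; 48 h exposure; 5 concentrations. Endpoints by linear interpolation between flanking doses. Not reached: highest tested concentration assigned. Here, GI50 denotes the concentration required for 50% inhibition of growth.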 Active and inactive are the calls of the source. Cut-off read from the data, not from the text of the source: active = GI50 up to about 1.1 µM and inactive = higher.
How the values were obtained:
Experiment in all cases: NCI-60 cell line screen, 48 h
786-0 = tested on: 786-0
A498 = tested on: A498
ACHN = tested on: ACHN
DU-145 = tested on: DU-145
HOP-92 = tested on: HOP-92
MCF7 = tested on: MCF7
MDA-MB-231 = tested on: MDA-MB-231
MDA-MB-435 = tested on: MDA-MB-435
MDA-N = tested on: MDA-N
Malme-3M = tested on: Malme-3M
NCI/ADR-RES = tested on: NCI/ADR-RES
PC-3 = tested on: PC-3
SNB-75 = tested on: SNB-75
SR = tested on: SR
T47D = tested on: T47D
TK-10 = tested on: TK-10
KM-20L2 = tested on: KM-20L2
M19-MEL = tested on: M19-MEL
SNB-78 = tested on: SNB-78
XF498 = tested on: XF498

Structure (SMILES)	GI50 (786-0)	GI50 (A498)	GI50 (ACHN)	GI50 (DU-145)	GI50 (HOP-92)	GI50 (MCF7)	GI50 (MDA-MB-231)	GI50 (MDA-MB-435)	GI50 (MDA-N)	GI50 (Malme-3M)	GI50 (NCI/ADR-RES)	GI50 (PC-3)	GI50 (SNB-75)	GI50 (SR)	GI50 (T47D)	GI50 (TK-10)	GI50 (KM-20L2)	GI50 (M19-MEL)	GI50 (SNB-78)	GI50 (XF498)
O=C1c2ccccc2-c2nnc(-c3ccc([N+](=O)[O-])cc3)cc21	> 10 µM (inactive)	> 10 µM (inactive)	> 10 µM (inactive)	> 10 µM (inactive)	> 10 µM (inactive)	> 10 µM (inactive)	> 10 µM (inactive)	> 10 µM (inactive)	> 10 µM (inactive)	> 10 µM (inactive)	> 10 µM (inactive)	> 10 µM (inactive)	> 10 µM (inactive)	> 10 µM (inactive)	> 10 µM (inactive)	> 10 µM (inactive)	–	–	–	–
COc1cc(/C=C/C2=C(C#N)C(=O)OC2(C)C)ccc1O	–	> 100 µM (inactive)	34.2 µM (inactive)	–	> 100 µM (inactive)	–	–	–	–	> 100 µM (inactive)	–	–	82.8 µM (inactive)	14.2 µM (inactive)	–	> 100 µM (inactive)	58.5 µM (inactive)	> 100 µM (inactive)	> 100 µM (inactive)	–
O=C1C2Cc3ccccc3CN2C(=O)N1CN1CCCCC1 (configuration not stated)	> 100 µM (inactive)	> 100 µM (inactive)	> 100 µM (inactive)	–	–	–	–	–	–	> 100 µM (inactive)	–	–	–	97.5 µM (inactive)	–	> 100 µM (inactive)	> 100 µM (inactive)	> 100 µM (inactive)	–	> 100 µM (inactive)
NC(=O)C1(c2ccccc2)Nc2ccccc2S1 (configuration not stated)	–	–	> 100 µM (inactive)	–	–	–	–	–	–	> 100 µM (inactive)	–	–	–	> 100 µM (inactive)	–	> 100 µM (inactive)	> 100 µM (inactive)	> 100 µM (inactive)	–	> 100 µM (inactive)
COc1ccc(Sc2ccccc2N)cc1	–	> 100 µM (inactive)	56.8 µM (inactive)	–	21.1 µM (inactive)	–	–	–	–	57.8 µM (inactive)	–	–	19.6 µM (inactive)	22.8 µM (inactive)	–	> 100 µM (inactive)	52.6 µM (inactive)	36.7 µM (inactive)	37.8 µM (inactive)	0.162 µM (active)
COc1cc(C)cc2c1C(=O)C(NC(C)=O)=CC2=O	> 100 µM (inactive)	> 100 µM (inactive)	> 100 µM (inactive)	> 100 µM (inactive)	99.8 µM (inactive)	67.1 µM (inactive)	98.4 µM (inactive)	17.3 µM (inactive)	18.1 µM (inactive)	> 100 µM (inactive)	> 100 µM (inactive)	> 100 µM (inactive)	45.7 µM (inactive)	55.1 µM (inactive)	59.3 µM (inactive)	> 100 µM (inactive)	–	–	–	–
O=C1Oc2ccc([N+](=O)[O-])cc2N/C1=C\C(=O)c1ccccc1	52.6 µM (inactive)	> 100 µM (inactive)	> 100 µM (inactive)	> 100 µM (inactive)	> 100 µM (inactive)	> 100 µM (inactive)	51.8 µM (inactive)	> 100 µM (inactive)	> 100 µM (inactive)	> 100 µM (inactive)	> 100 µM (inactive)	72.4 µM (inactive)	80 µM (inactive)	74.1 µM (inactive)	97.5 µM (inactive)	25.1 µM (inactive)	–	–	–	–
COc1cc2c(cc1OC)-c1c(cnn1C1OC(COC(C)=O)C(OC(C)=O)C(OC(C)=O)C1OC(C)=O)CC2 (configuration not stated)	> 100 µM (inactive)	> 100 µM (inactive)	> 100 µM (inactive)	–	48.1 µM (inactive)	–	–	–	–	–	–	–	48.9 µM (inactive)	10.5 µM (inactive)	–	> 100 µM (inactive)	> 100 µM (inactive)	> 89.1 µM (inactive)	> 100 µM (inactive)	–
Oc1ccccc1-c1nn2c(CCCCCCCCc3nnc4sc(-c5ccccc5O)nn34)nnc2s1	14.7 µM (inactive)	14.5 µM (inactive)	12 µM (inactive)	18 µM (inactive)	19.1 µM (inactive)	11.1 µM (inactive)	17.3 µM (inactive)	5.18 µM (inactive)	4.58 µM (inactive)	35 µM (inactive)	12 µM (inactive)	26.5 µM (inactive)	5.94 µM (inactive)	3.93 µM (inactive)	4.9 µM (inactive)	37.2 µM (inactive)	–	–	–	–
COC(=O)C1CCC(=O)N1/C(C)=N/NC(=O)Nc1ccc(Cl)c(Cl)c1 (configuration not stated)	> 100 µM (inactive)	> 100 µM (inactive)	21 µM (inactive)	–	> 100 µM (inactive)	–	–	–	–	–	–	–	65.3 µM (inactive)	> 100 µM (inactive)	–	88.1 µM (inactive)	32.2 µM (inactive)	> 100 µM (inactive)	> 100 µM (inactive)	> 100 µM (inactive)
CCCCOP(C)(=O)C(NC(=O)OCC)(C(F)(F)F)C(F)(F)F (configuration not stated)	–	> 100 µM (inactive)	> 100 µM (inactive)	> 100 µM (inactive)	> 100 µM (inactive)	> 100 µM (inactive)	> 100 µM (inactive)	> 100 µM (inactive)	> 100 µM (inactive)	> 100 µM (inactive)	> 100 µM (inactive)	> 100 µM (inactive)	> 100 µM (inactive)	> 100 µM (inactive)	> 100 µM (inactive)	> 100 µM (inactive)	–	–	–	–
